From EP4700040A1, “PEPTIDE AND LUMINESCENT COMPLEX CONTAINING SAME” (Shenzhen Loggene Life Science & Technology Co., Ltd., priority 2023, dated 2024) come the findings set out here.

Assay [1] deals with PCT. The experiment in a line: Second library screening for PCT detection, clone supernatants, retest with CTZ-h (Example 4). The class given is biochemical, human. The note with it: for Signal-to-noise ratio: PCT+/PCT-, MBP-PCT 3.3 ng/ml, CTZ-h; for PCT+: luminescence signal value with MBP-PCT 3.3 ng/ml; for PCT+ / PCT-: large subunit-rSCFV5 12.5 nM, CTZ-h 25 µM, 60 s; for PCT-: luminescence signal value, PBSAD control without PCT. The method, then: In order to further improve the signal-to-noise ratio and complementary activity of the luciferase dual-antibody complementary activation assay, novel complementary luciferase small subunits were prepared in this example. Large subunit-rSCFV5 fusion protein (SEQ ID NO: 87) was kept unchanged, and the small subunit sequence of the rSCFV18-RB073 fusion protein (SEQ ID NO: 89) were modified by semi-randomization. The theoretical diversity was 6912, the library capacity was 10^6, and 3,000 single clones were picked. The method of protein induction and expression was the same as that in Example 2.
Detection Methods: • (1) The concentration of large subunit-rSCFV5 fusion protein was diluted to 12.5 nM, and 15 µl was added per well; • (2) MBP-PCT fusion protein was diluted to 3.3 ng/ml with PBSAD, and 10 µl was added per well; • (3) HB2151 strain containing plasmids with different small subunit sequences were induced by IPTG at 30°C overnight, then treated with polymyxin B for 1.5h, and centrifuged to collect the supernatant, and 2.5µl supernatant was added per well; • (4) The above three components were slightly mixed, incubated at 37°C for 7 min, and Obuffer 6.37-3 containing Furimazine at a concentration of 25 µM was added, and after 3 min, the luminescence signal value was detected using a bioluminescence detector; and • (5) Clones with RLU higher than 10,000 were picked. The substrate was replaced with CTZ-h substrate for retesting (Obuffer 6.37-3 containing CTZ-h at a concentration of 25 µM was added, and after 60 s, the luminescence signal value was detected using a bioluminescence detector), and a PBSAD control was added to test the signal-to-noise ratio.

Assay [2] has as its system PCT. The assay can be described thus: Sensitivity and linear range for PCT detection of preferred small subunits (Example 5). The class given is biochemical, human. The settings on record: for luminescence value: normalized; for Signal-to-noise ratio at 1000 pg/ml: large subunit 8.3~25 nM, small subunit fusion 30~180 nM, CTZ-h 15 µM. The method, then:
Detection Methods: • (1) The concentration of large subunit-rSCFV5 fusion protein was diluted with PBSA to 8.3~25nM, and 15µl was added per well; • (2) MBP-PCT fusion proteins were diluted with PBSAD in a downward gradient starting from 2.5 µg/ml, and 10 µl was added per well; • (3) The rSCFV18-small subunit mutant-containing fusion protein was diluted with PBSA to 30~180 nM, and 15 µl was added per well; • (4) The above three components were slightly mixed, incubated at 37°C for 15 min, and Obuffer 6.37-3 containing CTZ-h at a concentration of 15 µM was added, and the luminescence signal value was immediately detected using a bioluminescence detector (the luminescence value was normalized);

With VDGWRLFDKKS [RC-103], in assay [1], the Signal-to-noise ratio is 6.5, the “PCT+” value was determined as 8672 and the PCT- amounted to 1337.
On the same counts, the results for VDGWRLFDKKS [RC-175] are 11.8, 6953 and 587.
VDGWRLFDKKS [RC-224]: the Signal-to-noise ratio in assay [1] was 9.2. The “PCT+” value in assay [1] is given as 10561. For the same sequence, the PCT- in assay [1] is 1142. Further, the luminescence value in assay [2] (PCT 0.0, background) is on record as 5000; in assay [2] (PCT 1 (pg/ml)), 5021; in assay [2] (PCT 3 (pg/ml)), 5002; in assay [2] (PCT 10 (pg/ml)) it was 5260; in assay [2] (PCT 30 (pg/ml)) it was 5685; in assay [2] (PCT 100 (pg/ml)) it was 7341. Moreover, the luminescence value in assay [2] (PCT 1000 (pg/ml)) stood at 28543; in assay [2] (PCT 10000 (pg/ml)) it was 240337; in assay [2] (PCT 100000 (pg/ml)), 1453897; in assay [2] (PCT 250000 (pg/ml)), 1856339. Also, the “Signal-to-noise ratio at 1000 pg/ml” value in assay [2] was 5.7.
With VDGWRLFERKS [RC-171], in assay [1], the Signal-to-noise ratio is reported as 7.6, the “PCT+” value was 10309 and the PCT- is listed as 1363.
Consider VDGYRLFEKVS [RC-263], for which, in assay [1], the Signal-to-noise ratio came out at 7.0. In assay [1], the “PCT+” value was 4768. Also, in assay [1], the PCT- is 685. Moreover, the luminescence value in assay [2] (PCT 0.0, background) is listed as 5000; in assay [2] (PCT 1 (pg/ml)) it was 5132; in assay [2] (PCT 3 (pg/ml)), 5234; in assay [2] (PCT 10 (pg/ml)), 5192; in assay [2] (PCT 30 (pg/ml)) it was 5647; in assay [2] (PCT 100 (pg/ml)), 7134. Moreover, the luminescence value came out at 28776 in assay [2] (PCT 1000 (pg/ml)), 240937 in assay [2] (PCT 10000 (pg/ml)), 1556694 in assay [2] (PCT 100000 (pg/ml)) and 2230650 in assay [2] (PCT 250000 (pg/ml)). For the same sequence, the “Signal-to-noise ratio at 1000 pg/ml” value in assay [2] stood at 5.8.
VDGYRLFERKS [RC-203]: in assay [1], the Signal-to-noise ratio was 6.6, the “PCT+” value came out at 10062 and the PCT- came out at 1536.
Take VEGWRIFERKW [RC-070]: in assay [1], the Signal-to-noise ratio was 5.2, the “PCT+” value was 8980 and the PCT- worked out at 1715.
The corresponding values for VEGWRLFDRKS [RC-232] are 5.8, 18313 and 3183.
Consider VEGWRLFDRVS [RC-237], for which, in assay [1], the Signal-to-noise ratio came to 5.0, the “PCT+” value is 10821 and the PCT- came to 2186.
On to VEGYRIFEKKW [RC-286], for which, in assay [1], the Signal-to-noise ratio was determined as 11.4. Besides, the “PCT+” value in assay [1] is listed as 5003. Besides, in assay [1], the PCT- is reported as 438. The luminescence value worked out at 5000 in assay [2] (PCT 0.0, background); 4670 in assay [2] (PCT 1 (pg/ml)); 4645 in assay [2] (PCT 3 (pg/ml)); 4833 in assay [2] (PCT 10 (pg/ml)); 5406 in assay [2] (PCT 30 (pg/ml)); 6696 in assay [2] (PCT 100 (pg/ml)). For the same sequence, the luminescence value amounted to 27596 in assay [2] (PCT 1000 (pg/ml)), 236023 in assay [2] (PCT 10000 (pg/ml)), 1443932 in assay [2] (PCT 100000 (pg/ml)) and 2007480 in assay [2] (PCT 250000 (pg/ml)). Further, the “Signal-to-noise ratio at 1000 pg/ml” value in assay [2] is listed as 5.5.
On to VEGYRLFDKVS [RC-087], for which, in assay [1], the Signal-to-noise ratio is 8.0, the “PCT+” value was 6923 and the PCT- stood at 861.
The corresponding values for VEGYRLFDKVS [RC-247] are 8.8, 4398 and 497.
On the same counts, the results for VEGYRLFEKIS [RC-036] are 5.5, 8563 and 1565.
The corresponding values for VEGYRLFEKIS [RC-082] are 5.8, 12852 and 2232.
Take VEGYRLFEKIS [RC-239]: in assay [1], the Signal-to-noise ratio came out at 6.0, the “PCT+” value turned out to be 10022 and the PCT- is 1676.
On the same counts, the results for VEGYRLFEKVS [RC-042] are 9.7, 5769 and 593.
On to VEGYRLFERKS [RC-105], for which, in assay [1], the Signal-to-noise ratio is listed as 5.0, the “PCT+” value turned out to be 14534 and the PCT- is 2934.
The corresponding values for VEGYRLFERKS [RC-145] are 10.1, 8198 and 808.
On the same counts, the results for VNGWRIFDKKS [RC-242] are 5.9, 9037 and 1524.
Regarding VNGWRLFDKKS [RC-271], in assay [1], the Signal-to-noise ratio is listed as 5.0, the “PCT+” value amounted to 7132 and the PCT- came out at 1428.
VSGWRIFDKKS [RC-124]: in assay [1], the Signal-to-noise ratio was 7.5, the “PCT+” value turned out to be 9280 and the PCT- turned out to be 1234.
The corresponding values for VSGWRIFDRKS [RC-041] are 4.7, 11789 and 2495.
The corresponding values for VSGYRIFDKKS [RC-044] are 8.0, 10392 and 1302.
On the same counts, the results for VSGYRIFEKKS [RC-129] are 5.8, 12040 and 2068.
As to VSGYRIFEKKS [RC-152], in assay [1], the Signal-to-noise ratio turned out to be 5.6, the “PCT+” value was determined as 9688 and the PCT- amounted to 1715.
The corresponding values for VSGYRIFEKKW [RC-113] are 5.3, 6207 and 1176.
The corresponding values for VSGYRIFERKW [RC-206] are 5.9, 7413 and 1260.
The corresponding values for VSGYRLFDKKS [RC-134] are 7.7, 9409 and 1223.
Regarding VSGYRLFDKKW [RC-261], in assay [1], the Signal-to-noise ratio was found to be 4.5, the “PCT+” value is recorded as 7217 and the PCT- is given as 1616.
For the sequence VSGYRLFDKVS [RC-114], in assay [1], the Signal-to-noise ratio is listed as 6.5, the “PCT+” value was 6401 and the PCT- stood at 982.
On the same counts, the results for VSGYRLFDKVS [RC-208] are 6.0, 12303 and 2056.
The corresponding values for VSGYRLFDRKS [RC-018] are 6.6, 13188 and 1998.
VSGYRLFDRKS [RC-098]: in assay [1], the Signal-to-noise ratio is recorded as 5.1, the “PCT+” value turned out to be 8666 and the PCT- is on record as 1698.
The corresponding values for VSGYRLFDRKS [RC-228] are 5.4, 16339 and 3000.
On the same counts, the results for VSGYRLFDRKW [RC-033] are 10.4, 8509 and 820.
The corresponding values for VSGYRLFDRVS [RC-032] are 4.8, 9519 and 1998.
For the sequence VSGYRLFDRVW [RC-220], in assay [1], the Signal-to-noise ratio worked out at 5.7, the “PCT+” value amounted to 6738 and the PCT- was determined as 1192.
